Data reported in PMC9555310, “Novel inhibitors and activity-based probes targeting serine proteases” (Frontiers in Chemistry, 2022).

Legend:
[1] = target: T1, elastase-like proteases (NE) in CF Sol samples (Homo sapiens, UniProt P08246); assay: Activity-based profiling of CF Sol samples (SDS-PAGE, streptavidin-HRP western blot); format: binding; conditions: 50 μM, 30 min, 37°C; band ∼29 kDa
T1 construct: from tissue; host or cells: Cystic Fibrosis (CF) Sol samples 26w and 41w from patients
T1 sequence (P08246 30-247 limits assumed): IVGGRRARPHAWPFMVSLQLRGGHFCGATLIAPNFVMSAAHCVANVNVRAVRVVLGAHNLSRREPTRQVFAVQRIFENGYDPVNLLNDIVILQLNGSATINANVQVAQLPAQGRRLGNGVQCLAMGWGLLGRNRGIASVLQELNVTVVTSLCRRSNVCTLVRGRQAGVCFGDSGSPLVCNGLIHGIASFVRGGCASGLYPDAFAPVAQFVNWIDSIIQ
Method: (§1) Samples of recombinant protease (trypsin, plasmin, thrombin, chymotrypsin, or HNE, as indicated in the relevant figure legends) were treated with each of the newly synthesized compounds at a concentration of 50 μM, for 30 min, at 37°C. A control sample (no ABP) was prepared by treating the recombinant protease with solvent vehicle (DMF) only, used to prepare the stock solution of each ABP. Samples were also pre-treated (±90°C for 30 min) before being incubated with each putative ABP. With trypsin and thrombin, further samples were prepared where Z-Arg^P-(OPh)2 or NAP559, respectively, was added 30 min prior to the addition of the ABP under examination. All treated samples were then denatured with SDS containing reducing treatment buffer (10 min at 95°C), followed by resolution by SDS-PAGE and subjected to Western blotting. Resolved proteins were then transferred onto the nitrocellulose membrane and labeled with streptavidin-HRP. The ABP–protease complex was then visualized following treatment with Luminata Forte HRP substrate.
(§2) FIGURE 7 Activity Based Profiling of serine proteases by peptide N-Alkyl glycine carbamates. […] CF Sol (sample 26w) was used at a final concentration of 2.5% (v/v), and the level of NE contained therein was measured using Succinyl-Ala-Ala-Pro-Val-NHMec (50 μM), in the absence (-- o --) and presence (-- o --) of NAP800 (50 μM). […]

NE in CF Sol samples = target: T2, NE in CF Sol samples (Homo sapiens, UniProt P08246); assay: Fluorogenic substrate assay of elastase-like activity in CF Sol; format: biochemical; conditions: 50 μM; CF Sol sample 26w at 2.5% (v/v); PBS pH 7.4, 37°C; 60 min
T2 construct: from tissue; host or cells: Cystic Fibrosis (CF) Sol samples 26w and 41w from patients
T2 sequence (P08246 30-267): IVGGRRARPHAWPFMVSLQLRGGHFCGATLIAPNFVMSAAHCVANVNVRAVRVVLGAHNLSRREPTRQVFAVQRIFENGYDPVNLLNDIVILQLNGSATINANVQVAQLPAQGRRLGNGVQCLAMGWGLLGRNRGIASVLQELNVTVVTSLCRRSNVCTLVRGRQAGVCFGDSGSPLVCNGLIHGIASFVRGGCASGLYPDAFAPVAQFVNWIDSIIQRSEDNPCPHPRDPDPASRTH
Method: FIGURE 7 Activity Based Profiling of serine proteases by peptide N-Alkyl glycine carbamates. (A,B) record the results for the incubation of NE with NAP800 and chymotrypsin with NAP849. NE and Chymotrypsin were treated (±) with NAP800 and NAP849, respectively (± pre-heat inactivation at 95°C, for 10 min), for 30 min, at 37°C. (C) Determination of NE levels in CF samples using fluorogenic substrate assay. NE assays were carried out in PBS, pH 7.4, at 37°C. CF Sol (sample 26w) was used at a final concentration of 2.5% (v/v), and the level of NE contained therein was measured using Succinyl-Ala-Ala-Pro-Val-NHMec (50 μM), in the absence (-- o --) and presence (-- o --) of NAP800 (50 μM). (D) Activity based profiling of CF Sol using NAP800. CF Sol samples 26w and 41w were treated (+) with 50 μM NAP800 (+ pre-heat inactivation at 95°C, for 10 min), for 30 min, at 37°C.
Initially, as a quick screen, a fluorogenic enzyme assay was performed on CF Sol samples, using the elastase fluorogenic substrate MeO-Succinyl-Ala-Ala-Pro-Val-NHMec, the results of one such experiment (performed on sample 26w) is recorded in Figure 7C.

trypsin = target: T3, trypsin (Sus scrofa, UniProt P00761); assay: Activity-based profiling of trypsin (SDS-PAGE, streptavidin-HRP western blot); format: binding, porcine; conditions: 50 μM ABP, 30 min, 37°C; band of apparent molecular weight 23 kDa
T3 construct: purchased Sigma-Aldrich; host or cells: porcine pancreas
Method: as §1, with “The ABP–protease complex was then visualized following treatment with Luminata Forte HRP substrate.” left out
(§3) Following transfer, the extra protein binding sites on the membrane were blocked by addition of 3% (w/v) BSA in TBST (20 mM Tris, 137 mM NaCl, 1% (v/v) Tween 20, pH 7.6) and agitated gently at room temperature for 30 minutes. The biotin-labelled proteases were then detected by addition of Streptavidin-HRP (Vector Laboratories) in 3% (w/v) BSA in TBST at a concentration of 1:20000, for 1 hour at room temperature. […]

chymotrypsin = target: T4, chymotrypsin (Bos taurus, UniProt P00766); assay: Activity-based profiling of chymotrypsin (SDS-PAGE, streptavidin-HRP western blot); format: binding, bovine; conditions: 50 μM ABP, 30 min, 37°C; blocked by heat inactivation
T4 construct: purchased Sigma-Aldrich (supplement); Calbiochem; host or cells: bovine pancreas
Method: Samples of recombinant protease (trypsin, plasmin, thrombin, chymotrypsin, or HNE, as indicated in the relevant figure legends) were treated with each of the newly synthesized compounds at a concentration of 50 μM, for 30 min, at 37°C. A control sample (no ABP) was prepared by treating the recombinant protease with solvent vehicle (DMF) only, used to prepare the stock solution of each ABP. Samples were also pre-treated (±90°C for 30 min) before being incubated with each putative ABP. With trypsin and thrombin, further samples were prepared where Z-Arg^P-(OPh)2 or NAP559, respectively, was added 30 min prior to the addition of the ABP under examination. […]
as §2, §3

T3 sequence (P00761 9-231): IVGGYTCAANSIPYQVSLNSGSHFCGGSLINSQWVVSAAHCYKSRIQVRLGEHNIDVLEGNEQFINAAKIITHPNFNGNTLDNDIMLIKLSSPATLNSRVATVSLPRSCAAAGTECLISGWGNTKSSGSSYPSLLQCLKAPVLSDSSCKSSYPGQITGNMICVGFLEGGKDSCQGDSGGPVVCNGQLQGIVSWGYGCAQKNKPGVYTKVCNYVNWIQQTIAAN

`CC(C)N(CC(=O)NCC(=O)NCC(=O)NCCCOCCOCCOCCCNC(=O)CCCCC1SCC2NC(=O)NC21)C(=O)ON1C(=O)CCC1=O` (stereo not drawn) [NAP800, Succinimidoyl-CO-NVal-Gly-Gly-PEG-Biotin] was tested, and the “labelling of elastase-like proteases in CF Sol (western blot)” value [1] was “detection of a diffuse band in two CF Sol samples (26w and 41w)” and the “blockade of MeO-Succinyl-Ala-Ala-Pro-Val-NHMec cleavage in CF Sol” value (NE in CF Sol samples) was “progressive and ultimately complete blockade of substrate cleavage”.

In the case of `NCCCCN(CC(=O)NCC(=O)NCC(=O)NCCCOCCOCCOCCCNC(=O)CCCCC1SCC2NC(=O)NC21)C(=O)ON1C(=O)CCC1=O` (stereo not drawn) [NAP830, Succinimidoyl-CO-NLys-Gly-Gly-PEG-Biotin], the “labelling of trypsin by ABP (western blot)” value (trypsin) was “enabled the active site labeling and detection of the protease”.

For `O=C(CCCCC1SCC2NC(=O)NC21)NCCCOCCOCCOCCCNC(=O)CNC(=O)CNC(=O)CN(Cc1ccccc1)C(=O)ON1C(=O)CCC1=O` (stereo not drawn) [NAP849, Succinimidoyl-CO-NPhe-Gly-Gly-PEG-Biotin], the “labelling of chymotrypsin by ABP (western blot)” value (chymotrypsin) was “detection of a strong band corresponding to the molecular weight of chymotrypsin”.
